The test system of assay [1] is P. aeruginosa E411-17. Description: microbe, parasite or virus in culture. Conditions: Pseudomonas aeruginosa, E41117; Table 14; read-out: MIC P. aeruginosa E411-17. In kind it is cell-based, Pseudomonas aeruginosa. Summed up:
(§1)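 Broth microdilution: log-phase cultures in tryptic soy broth diluted to OD600 0.001, exposed to two-fold diluted peptides at 37° C overnight, growth read at 630 nm. Medium effects on S. aureus USA300 tested with up to 200 mM NaCl, 2 mM CaCl2, 5-10% human serum, mouse plasma, fluids or tissue homogenate supernatants.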

Assay [2] relates to S. aureus USA300. In kind it is in vivo, Staphylococcus aureus. To be noted: different tissues; single i.p. injection; positive control. As for the experimental part:
Female C57BL/6 mice (6 weeks old) were purchased from Charles River. After environment adaptation, mice were induced neutropenic by administering two doses of cyclophosphamide on day 1 (150 mg/kg) and Day 4 (100 mg/kg). This cyclophosphamide administration was skipped for experiments using non-neutropenic mice (i.e., normal mice). On day 5, mice were infected with S. aureus USA300 LAC (˜2×10^6 CFU per mouse) via intraperitoneal injection (i.p.). For the treatment groups, mice were i.p. treated 2 hours post infection with peptides at a single dose of 5 mg/kg. Both positive and negative controls were included. At the end of the experiments, all animals were sacrificed according to institutional guidelines. Organs, including spleen, lung, kidney, and liver, were harvested, weighed, placed in sterile PBS and stored on ice. Harvested animal organs were subsequently homogenized using homogenizer (Omni, Kennesaw, GA). Proper dilutions, especially for untreated control groups, were made to get countable colonies. Blood agar plates were then incubated overnight at 37° C. The bacteria grown on plates were enumerated and plotted using the Graph pad Prism software.
Female C57BL/6 or Balb/c mice (6 weeks old) were purchased from Charles River. The mice were induced neutropenic by administering two doses of cyclophosphamide on day 1 (150 mg/kg) and Day 4 (100 mg/kg). On day 5, mice were infected with S. aureus USA300 (˜2×10^6 CFU per mouse) or K. pneumoniae E406-17 (˜5×10^5 CFU per mouse) via intraperitoneal injection (i.p.). For the treatment groups, mice were i.p. or intravenous (i.v.) treated 2 hours post infection with peptides at a single dose of 5, 10, or 15 mg/kg. Both positive and negative controls are used. At the end of the experiments, all animals were sacrificed according to institutional guidelines. […] The CFU of each mouse was plotted as an individual point and error bars represent the deviation within the experimental group. * p<0.05 ** p<0.01, ***p<0.001 and NS represents no significance (determined by Mann-Whitney test).

Assay [3] concerns A. baumannii B26-16. Description: microbe, parasite or virus in culture. To be noted: Acinetobacter baumannii, B2616; Table 14; read-out: MIC A. baumannii B26-16. In kind it is cell-based, Acinetobacter baumannii. A digest of the protocol:
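Broth microdilution in tryptic soy broth: log-phase cultures diluted to 0.001 OD600 and exposed to peptide dilutions overnight at 37 °C, growth read at 630 nm. For S. aureus USA300, medium effects tested at pH 6.8, 7.2 and 8.0, with 150 mM NaCl, or with 5–10% human serum, mouse plasma or peritoneal fluid.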

Assay [4] deals with S. aureus M838-17 (MRSA). Description: microbe, parasite or virus in culture. In kind it is cell-based, Staphylococcus aureus. To be noted: Staphylococcus aureus, MRSA; Table 7; by weight; read-out: MIC S. aureus M838-17 (MRSA). Summed up:
as §1

Assay [5] concerns S. aureus USA300. Description: microbe, parasite or virus in culture. In kind it is cell-based, Staphylococcus aureus. Conditions: Staphylococcus aureus, MRSA / USA300; Table 14; read-out: MIC S. aureus USA300 (MRSA). Summed up: as §1
Assay [6] has as its system K. pneumoniae E406-17. Nature of the assay: microbe, parasite or virus in culture. In kind it is cell-based, Klebsiella pneumoniae. Conditions: Klebsiella pneumoniae, E40617; Table 14; read-out: MIC K. pneumoniae E406-17. A digest of the protocol:
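Broth microdilution in tryptic soy broth: log-phase cultures (OD600 ≈0.5) diluted to OD600 0.001, given two-fold peptide dilutions, incubated overnight at 37° C. Growth read at 630 nm.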

Assay [7] relates to E. coli E423-17. Nature of the assay: microbe, parasite or virus in culture. In kind it is cell-based, Escherichia coli. To be noted: Escherichia coli, E42317; Table 14; read-out: MIC E. coli E423-17. Summed up: as §1
The test system of assay [8] is S. aureus USA300. Description: Propidium iodide membrane permeation. In kind it is cell-based, Staphylococcus aureus. As for the experimental part: The membrane permeation experiment was performed as described with minor modifications (Wang, et al. (2005) J. Biol. Chem., 280:5803-5811). Serially diluted 10× peptides (10 μL each well) were created in 96-well microtiter plates. Propidium iodide (2 μL) at a fixed concentration of 20 μM were added to each well followed by 88 μL of the S. aureus USA300 culture (a final OD600˜0.1 in TSB media). The plate was incubated at 37° C. with continuous shaking at 100 rpm in a FLUOstar® Omega (BMG LABTECH, Cary, NC) microplate reader. The fluorescence from the plate was read every 5 minutes for a total duration of 2 hours with an excitation and emission wavelengths of 584 nm and 620 nm, respectively. Plots were made using average values of duplicated experiments with MARS software.
The experiment was performed as described previously with minor modifications (Mishra, et al. (2017) Acta Biomater., 49:316-328). Serially diluted 10× peptides (10 μL each well) were created in 96-well microtiter plates. Propidium iodide (2 μL) at a fixed concentration of 20 μM were added to each well followed by 88 μL of the S. aureus USA300 culture (a final OD600˜0.1 in TSB media or PBS). The plate was incubated at 37° C. with continuous shaking at 100 rpm in a FLUOstar® Omega (BMG LABTECH) microplate reader. The samples fluorescence was read at every 5 minutes for 24 cycles with an excitation and emission wavelengths of 584 nm and 620 nm, respectively. Plots generated using average values from the experiments using GraphPad Prism.

In assay [9] the test system is E. faecium V286-17 (VRE). Nature of the assay: microbe, parasite or virus in culture. In kind it is cell-based, Enterococcus faecium. To be noted: Enterococcus faecium, VRE, read-out: MIC E. faecium V286-17 (VRE). Summed up: as §1
For assay [10] the following is noted: literature; cited from earlier work.

Converted amounts (≈) assume the structure as drawn. “Also recorded” adds a separate entry of the source. Like-named read-outs stand apart in the source and are kept apart here. Ends that are not written are not given here.

Turning to `CCCCCCCCCC(=O)N[C@@H](Cc1c[nH]c2ccccc12)C(=O)N[C@H](CC(N)=O)C(=O)N[C@@H](CC(=O)O)C(=O)N[C@@H]1C(=O)NCC(=O)N[C@@H](CCCN)C(=O)N[C@@H](CC(=O)O)C(=O)N[C@H](C)C(=O)N[C@@H](CC(=O)O)C(=O)NCC(=O)N[C@H](CO)C(=O)N[C@@H]([C@H](C)CC(=O)O)C(=O)N[C@@H](CC(=O)c2ccccc2N)C(=O)O[C@@H]1C` [Daptomycin], the MIC in [1] is > 8 µM; in [3] it was > 8 µM; in [4], 0.78 µM (≈ 1.26 µg/mL); in [5] it was 4 µM (≈ 6.48 µg/mL); in assay [6] it was > 8 µM; in assay [7], > 8 µM. Besides, the MIC in assay [9] (Table 7) was 3.1 µM (≈ 5.02 µg/mL); in assay [9] (Table 14) it was 4 µM (≈ 6.48 µg/mL). Moreover, the “Decrease in bacterial burden” value in assay [2] is recorded as 1-4 logs. The “Propidium iodide membrane permeation” value in assay [8] is “fluorescence increase; also recorded: permeated bacterial membranes”.

In the case of “ALWMTLLKKVLKAAAK (not fully specified (C-terminus)) [DS4(1-16)]”, the “In vivo outcome” value in assay [10] is “failure”.

Turning to “GIGKFLKKAKKFGKAFVKILKK (not fully specified (C-terminus)) [MSI-78]”, the “In vivo outcome” value in assay [10] was “failure”.

On to “RPDKPRPYLPRPRPPRPVR (not fully specified (C-terminus)) [Peptide A3-APO]”, for which the “In vivo outcome” value in assay [10] is reported as “showed in vivo efficacy”.
